Assay results taken from PubChem BioAssay AID588614 (The Scripps Research Institute Molecular Screening Center, 2011).
Activity calls are given as the source filed them.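 Rule for the calls: active = Level of the kinase MAPK1 protein lowered or raised by at least 30% versus solvent-only cells; inactive = change under 30% either way.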

How the values were obtained:
[1] = system: DLD-1 cells, ERK1/2 western blot, 24 h; assay: MAPK1 abundance shift in treated cells – DLD1 cells, chemiluminescent western blot, powder samples, counter-screen for KLF5 inhibitor project, late-stage follow-up (AID 588614); conditions: measured here: ERK1/2 band fold change vs DMSO; at 10 µM
[2] = target: Mitogen-activated protein kinase 1 (Homo sapiens) (UniProt P28482); assay: as above; conditions: DLD-1 cells, ERK1/2 western blot, 24 h; at 10 µM; stronger effect = higher value
Chain of Mitogen-activated protein kinase 1 (Homo sapiens) (P28482 whole entry, looked up): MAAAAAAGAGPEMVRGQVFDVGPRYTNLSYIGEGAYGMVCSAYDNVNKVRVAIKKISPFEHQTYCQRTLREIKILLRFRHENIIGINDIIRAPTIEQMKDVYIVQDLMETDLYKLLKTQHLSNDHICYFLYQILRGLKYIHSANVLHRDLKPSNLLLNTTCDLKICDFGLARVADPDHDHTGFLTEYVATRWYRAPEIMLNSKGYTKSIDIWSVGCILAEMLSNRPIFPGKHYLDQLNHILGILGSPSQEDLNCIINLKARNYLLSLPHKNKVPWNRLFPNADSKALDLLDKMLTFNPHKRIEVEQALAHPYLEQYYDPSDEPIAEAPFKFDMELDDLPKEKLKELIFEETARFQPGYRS

Row | SMILES | fold change [1] | inhibition [2]
1 | CN(C(=O)CNC(=O)/C=C/c1cccc(Cl)c1)C1CCS(=O)(=O)CC1 | -1.27 | 21.5% (inactive)
2 | CN(C(=O)CNC(=O)/C=C/c1cccc(Cl)c1)C1CCS(=O)(=O)C1 (stereo unspecified) | -1.26 | 20.8% (inactive)
3 | CN(C(=O)COC(=O)/C=C/c1cccc([N+](=O)[O-])c1)C1CCS(=O)(=O)C1 (stereo unspecified) | -1.25 | 19.8% (inactive)
